Converted amounts (≈) assume the structure as drawn. Where two headings read alike, the source gives them in different places.
Key:
[1] = Permeability; type: in vitro ADME; settings: not told; read-out: Permeability PupperX10^6 cm/s
[2] = biological target: T1, CYP1A2 (Homo sapiens, UniProt P05177); experiment: In Vitro Metabolism (isozymes of P450) CYP1A2
T1 sequence (P05177 1-516): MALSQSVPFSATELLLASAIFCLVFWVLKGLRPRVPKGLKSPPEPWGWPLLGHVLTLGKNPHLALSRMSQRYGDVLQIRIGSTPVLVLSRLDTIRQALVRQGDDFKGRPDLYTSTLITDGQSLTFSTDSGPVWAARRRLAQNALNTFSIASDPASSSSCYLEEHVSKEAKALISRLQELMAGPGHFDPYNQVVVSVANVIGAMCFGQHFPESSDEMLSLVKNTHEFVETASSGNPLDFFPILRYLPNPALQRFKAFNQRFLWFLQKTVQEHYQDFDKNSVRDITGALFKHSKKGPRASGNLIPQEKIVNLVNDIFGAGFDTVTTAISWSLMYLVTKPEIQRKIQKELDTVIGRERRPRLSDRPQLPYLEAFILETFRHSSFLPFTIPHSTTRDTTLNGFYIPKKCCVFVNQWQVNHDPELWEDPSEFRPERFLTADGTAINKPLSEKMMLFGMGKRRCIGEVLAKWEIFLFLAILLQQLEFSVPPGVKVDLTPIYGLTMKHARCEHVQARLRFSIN

[3] = tested on: Membrane Integrity; experiment: Safety Assessment: Membrane Integrity
[4] = biological target: sigma-2 (Rattus norvegicus, UniProt Q5U3Y7); experiment: Behavioral receptor assays: sigma-2; type: binding; settings: read-out: Receptors (IC50) sigma-2
Method: (§1) Various compounds of the present invention (19, 31, and 32) were evaluated in a group of assays based on mammalian cellular receptors associated with behavior. The group consisted of assays base on human dopamine D1, D2L, D3, D4.2, D4.4, D4.7, and D5 receptors, and the transporter; human serotonin 5-HT1A, 5-HT1B, 5-HT1D, 5-HT2A, 5-HT2B, 5-HT2C, 5-HT3, 5-HT5A, 5-HT6, and 5-HT7 receptors, and the human serotonin transporter; guinea pig 5-HT4 and sigma-1 receptors; rat sigma-2 and muscarinic receptors; and human NK1-3 receptors. The following table presents a subset of the results of these assays.

[5] = biological target: human sigma receptor (Homo sapiens, UniProt Q99720); experiment: Human sigma receptor assay; type: binding; settings: read-out: IC50 Against Human Sigma Receptor
Method: (§2) The ability of test compounds to displace sigma ligands in vitro was determined by the methods of de Costa et al. (FEBS Lett. 251:53 (1989)) and De Haven-Hudkine et al. (Eur. J. Pharmacol. 227:372 (1992)) having guinea pig as a receptor source. Whereas, the methods of Gamapatju et al. (J. Pharm.&Exp. 289:251 (1999)) were utilized for human sigma receptors.

[6] = Metabolic Stability
[7] = biological target: T2, sigma-1 receptor (guinea pig brain) (Cavia porcellus, UniProt Q60492); experiment: Antagonism of haloperidol binding to guinea pig sigma-1 receptors; settings: sigma-1, guinea pig brain; for % Inhibition: test concentration not given
T2 construct: from tissue; host or cells: guinea pig brain

[8] = tested on: Caspase-3; experiment: Safety Assessment: Caspase-3 Induction
[9] = tested on: Cell Viability; experiment: Safety Assessment: Cell Viability
[10] = Pharmacokinetics in a single rat; type: in vivo; settings: for concentration at 4 h: brain, 4 h post dose, read-out: Brain Tissue Distribution (4 h post dose, ng/g tissue); for concentration at 4 h / clearance / AUC(0-t): iv; for concentration at 4 h / AUC(0-t) / T1/2α / T1/2β: rat; for clearance / AUC(0-t): plasma; for clearance / Vb / Vc: rat (270 g); for AUC(0-t): read-out: AUC0-4h
Method: Pharmacokinetic properties of the compounds were evaluated in a single rat after dosing 4 and 5 mg/kg, respectively. The dose was well tolerated by the animal. The data below is based on a 270 g rat. Numerous time points were taken during a 4 hour period where a 0.1 mL volume of plasma was transferred to a 1.4 mL polypropylene vial and 0.4 mL of chilled methanol (0° C.) was added. The resulting percipitate was centrifuged at 7000 rpm at 4° C. for 5 min. The resulting supernatant was analysed by HPLC using a sample volume of 0.05 mL alongside standard solutions prepared by “spiking” known amounts of the compounds into the control plasma. Standard solution of the compounds were prepared in methanol.

[11] = tested on: Protein Synthesis; experiment: Safety Assessment: Protein Synthesis
[12] = biological target: CYP3A4 (Homo sapiens, UniProt P08684); experiment: In Vitro Metabolism (isozymes of P450) CYP3A4
[13] = tested on: GSH Level; experiment: Safety Assessment: GSH Level
[14] = biological target: T3, guinea pig sigma receptor (Cavia porcellus, UniProt Q60492); experiment: Guinea pig sigma receptor assay; type: binding; settings: read-out: IC50 Against Guinea Pig Sigma Receptor
T3 construct: having guinea pig as a receptor source; from tissue; host or cells: guinea pig
Method: as §2

[15] = Protein Binding
[16] = biological target: sigma-1 receptors (Cavia porcellus, UniProt Q60492); experiment: Behavioral receptor assays: sigma-1; type: binding; settings: guinea pig
Method: as §1

[17] = tested on: RedOx State; experiment: Safety Assessment: RedOx State
[18] = tested on: DNA Synthesis; experiment: Safety Assessment: DNA Synthesis
[19] = biological target: CYP2D6 (Homo sapiens, UniProt P10635); experiment: In Vitro Metabolism (isozymes of P450) CYP2D6
[20] = Log D7.5
[21] = biological target: CYP2C19 (Homo sapiens, UniProt P33261); experiment: In Vitro Metabolism (isozymes of P450) CYP2C19
[22] = Solubility
[23] = biological target: CYP2C9 (Homo sapiens, UniProt P11712); experiment: In Vitro Metabolism (isozymes of P450) CYP2C9
Sequence of CYP2C9 (P11712 whole entry): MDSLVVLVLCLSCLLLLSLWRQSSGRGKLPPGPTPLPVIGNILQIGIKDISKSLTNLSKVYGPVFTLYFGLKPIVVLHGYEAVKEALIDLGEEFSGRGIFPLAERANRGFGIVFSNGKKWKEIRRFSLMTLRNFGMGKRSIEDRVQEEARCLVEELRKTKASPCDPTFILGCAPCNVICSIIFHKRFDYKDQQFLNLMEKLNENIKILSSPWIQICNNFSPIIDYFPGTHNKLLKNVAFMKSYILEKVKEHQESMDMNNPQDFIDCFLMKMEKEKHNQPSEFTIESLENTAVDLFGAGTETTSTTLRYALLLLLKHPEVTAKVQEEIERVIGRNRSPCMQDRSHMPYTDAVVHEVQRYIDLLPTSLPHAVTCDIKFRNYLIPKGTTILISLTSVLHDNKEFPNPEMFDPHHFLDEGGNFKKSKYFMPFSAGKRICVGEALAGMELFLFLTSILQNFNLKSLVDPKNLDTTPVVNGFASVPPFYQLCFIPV

T2 sequence (Q60492 whole entry): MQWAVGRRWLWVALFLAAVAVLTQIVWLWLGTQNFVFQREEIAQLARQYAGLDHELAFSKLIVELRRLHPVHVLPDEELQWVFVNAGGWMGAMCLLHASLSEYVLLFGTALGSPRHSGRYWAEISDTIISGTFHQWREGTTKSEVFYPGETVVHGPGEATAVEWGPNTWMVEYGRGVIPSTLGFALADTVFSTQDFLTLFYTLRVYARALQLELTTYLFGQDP
Sequence of CYP2D6 (P10635 whole entry): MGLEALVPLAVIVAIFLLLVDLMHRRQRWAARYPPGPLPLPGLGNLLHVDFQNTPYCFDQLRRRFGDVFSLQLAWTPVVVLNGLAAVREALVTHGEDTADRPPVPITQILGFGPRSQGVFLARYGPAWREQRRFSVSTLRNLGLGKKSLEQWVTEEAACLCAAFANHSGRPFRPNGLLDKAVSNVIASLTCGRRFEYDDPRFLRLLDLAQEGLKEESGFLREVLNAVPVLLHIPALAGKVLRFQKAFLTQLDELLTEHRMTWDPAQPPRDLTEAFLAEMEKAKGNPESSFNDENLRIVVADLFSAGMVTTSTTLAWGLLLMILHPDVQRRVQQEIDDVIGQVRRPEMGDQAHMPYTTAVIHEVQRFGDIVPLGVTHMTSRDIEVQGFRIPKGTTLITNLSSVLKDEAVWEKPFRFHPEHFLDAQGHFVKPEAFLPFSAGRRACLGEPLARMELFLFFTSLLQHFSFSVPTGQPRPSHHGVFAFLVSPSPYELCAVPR
Sequence of human sigma receptor (Q99720 whole entry): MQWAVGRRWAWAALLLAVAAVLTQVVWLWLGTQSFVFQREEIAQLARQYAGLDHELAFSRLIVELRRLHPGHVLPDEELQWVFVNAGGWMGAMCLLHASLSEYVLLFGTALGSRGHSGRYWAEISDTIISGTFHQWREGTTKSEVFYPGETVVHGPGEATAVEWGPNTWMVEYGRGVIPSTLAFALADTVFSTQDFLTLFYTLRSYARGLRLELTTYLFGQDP
Sequence of CYP3A4 (P08684 whole entry): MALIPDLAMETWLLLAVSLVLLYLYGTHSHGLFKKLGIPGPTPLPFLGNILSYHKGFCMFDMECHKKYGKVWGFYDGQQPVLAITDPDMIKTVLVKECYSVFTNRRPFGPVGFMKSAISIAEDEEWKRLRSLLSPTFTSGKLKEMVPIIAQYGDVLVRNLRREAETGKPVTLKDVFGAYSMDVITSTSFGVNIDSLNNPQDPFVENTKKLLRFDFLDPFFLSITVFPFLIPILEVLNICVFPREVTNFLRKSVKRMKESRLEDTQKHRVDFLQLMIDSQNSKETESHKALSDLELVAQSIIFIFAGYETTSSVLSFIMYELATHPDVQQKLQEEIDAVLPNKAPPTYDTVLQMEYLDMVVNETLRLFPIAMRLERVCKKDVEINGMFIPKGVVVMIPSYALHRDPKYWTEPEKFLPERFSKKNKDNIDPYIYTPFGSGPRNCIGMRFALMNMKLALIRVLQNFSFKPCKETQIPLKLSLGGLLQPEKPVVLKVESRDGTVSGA
Sequence of CYP2C19 (P33261 whole entry): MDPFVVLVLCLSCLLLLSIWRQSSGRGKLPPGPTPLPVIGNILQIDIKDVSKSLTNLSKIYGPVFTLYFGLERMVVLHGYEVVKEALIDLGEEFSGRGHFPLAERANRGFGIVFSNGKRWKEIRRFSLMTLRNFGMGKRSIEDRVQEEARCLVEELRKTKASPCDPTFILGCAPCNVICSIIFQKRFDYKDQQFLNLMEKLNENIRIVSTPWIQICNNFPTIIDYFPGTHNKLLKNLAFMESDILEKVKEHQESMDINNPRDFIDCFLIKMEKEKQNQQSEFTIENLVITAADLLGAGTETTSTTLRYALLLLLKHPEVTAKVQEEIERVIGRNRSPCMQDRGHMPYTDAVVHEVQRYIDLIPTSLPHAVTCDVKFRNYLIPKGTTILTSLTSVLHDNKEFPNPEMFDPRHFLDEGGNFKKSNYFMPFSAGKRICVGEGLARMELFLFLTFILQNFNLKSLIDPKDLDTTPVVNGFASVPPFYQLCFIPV
T3 sequence (Q60492 whole entry): as the sequence (Q60492 whole entry) above
Sequence of sigma-1 receptors (Q60492 whole entry): as above
Sequence of sigma-2 (Q5U3Y7 whole entry): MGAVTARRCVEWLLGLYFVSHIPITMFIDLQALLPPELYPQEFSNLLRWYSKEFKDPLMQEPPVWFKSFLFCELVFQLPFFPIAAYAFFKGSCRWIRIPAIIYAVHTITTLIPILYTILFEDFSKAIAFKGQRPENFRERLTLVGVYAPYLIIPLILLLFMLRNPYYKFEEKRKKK

OC1CCC2(CCN(Cc3ccc(F)cc3)CC2)Nc2ccccc21 (racemic) [Compound 32, 1′-(4-fluorobenzyl)-3,4-dihydrospiro[5H-1-benzazepine-2(1H)-4′-piperidin]-5ol]
Papp [1]: 22.4 ×10⁻⁶ cm/s | CYP1A2 [2]: 20 % inhibition | Membrane Integrity [3]: <10 % inhibition | IC50 [4]: < 1000 nM | IC50 [5]: < 100 nM | Metabolic Stability (% parent remaining) [6]: 1 % parent remaining | IC50 [7]: < 10 nM | % Inhibition [7]: >50% | Caspase-3 Induction % Induction [8]: <10 % Induction | Cell Viability [9]: <10 % inhibition | concentration at 4 h ([10]; 5 mg/kg i.v.): 134 ng/g | clearance ([10]; 5 mg/kg i.v.): 31.7 mL/min | AUC(0-t) ([10]; 5 mg/kg i.v., 10% hydroxypropyl-p-cyclodextrin): 700 ng·h/mL | Vb ([10]; 5 mg/kg i.v.): 42 L | Vc ([10]; 5 mg/kg i.v.): 1.1 L | T1/2α ([10]; 5 mg/kg i.v.): 12.6 min | T1/2β ([10]; 5 mg/kg i.v.): 120 min | Protein Synthesis [11]: <10 % inhibition | CYP3A4 [12]: 67 % inhibition | GSH Level (% Control) [13]: <10 % Control | IC50 [14]: < 10 nM | fraction unbound [15]: < 0.01 | IC50 [16]: < 10 nM | RedOx State [17]: 17 % inhibition | DNA Synthesis [18]: <10 % inhibition | CYP2D6 [19]: 102 % inhibition | Log D7.5 [20]: 3.7 | CYP2C19 [21]: 42 % inhibition | solubility [22]: 83 µM (≈ 28.3 µg/mL) | CYP2C9 [23]: 11 % inhibition

O=C1CCC2(CCN(Cc3ccc(F)cc3)CC2)Nc2ccccc21 [Compound 31, 1′-(4-fluorobenzyl)-3,4-dihydrospiro[5H-1-benzazepine-2(1H)-4′-piperidin]-5-one]
Papp [1]: 22.9 ×10⁻⁶ cm/s | CYP1A2 [2]: <10 % inhibition | Membrane Integrity [3]: <10 % inhibition | IC50 [4]: < 1000 nM | IC50 [5]: < 100 nM | Metabolic Stability (% parent remaining) [6]: 44 % parent remaining | IC50 [7]: < 10 nM | % Inhibition [7]: >50% | Caspase-3 Induction % Induction [8]: <10 % Induction | Cell Viability [9]: <10 % inhibition | concentration at 4 h ([10]; 4 mg/kg i.v.): 70 ng/g | clearance ([10]; 4 mg/kg i.v.): 10.2 mL/min | AUC(0-t) ([10]; 4 mg/kg i.v., Peg400:Dextrose (2:3 v/v)): 1480 ng·h/mL | Vb ([10]; 4 mg/kg i.v.): 0.65 L | Vc ([10]; 4 mg/kg i.v.): 0.23 L | T1/2α ([10]; 4 mg/kg i.v.): 7.2 min | T1/2β ([10]; 4 mg/kg i.v.): 48 min | Protein Synthesis [11]: 65 % inhibition | CYP3A4 [12]: 22 % inhibition | GSH Level (% Control) [13]: <10 % Control | IC50 [14]: < 10 nM | fraction unbound [15]: 0.04 | IC50 [16]: < 10 nM | RedOx State [17]: 28 % inhibition | DNA Synthesis [18]: <10 % inhibition | CYP2D6 [19]: 44 % inhibition | Log D7.5 [20]: 2.19 | CYP2C19 [21]: 28 % inhibition | solubility [22]: 192 µM (≈ 65 µg/mL) | CYP2C9 [23]: <10 % inhibition

Reference: patent US6476019B1, “Spirocyclic ligands for sigma receptors, and libraries and methods of use thereof” (Sepracor Inc., priority 1999, dated 2002)
